Test results published in patent US4804651A, “Methods and compositions for the treatment of psoriasis” (Board of Regents, The University of Texas System, priority 1987, dated 1989).
Where two headings read alike, the source gives them in different places.

Key:
[1] = cited from earlier work
[2] = Progression of AIDS in the individual treated for psoriasis; assay type: in vivo, human; details: 800 mg orally per day
Description: Of the following examples, examples I through IV disclose toxicity data obtained from the manufacturer of AZT, Burroughs Wellcome Drug Co., developed during the course of obtaining FDA approval for use of the drug in the treatment of AIDS. However, treatment protocols effective in treating psoriasis are similar.
An individual developed severe psoriasis and AIDS-related complex (ARC). As their immunity diminished over the next eight months to a T4 count of 14/mm^3, the psoriasis became more extensive, including 60% of their body, all nails and digits.
Ten months after developing the ARC and psoriasis, the individual developed Pneumocystis carinii pneumonia (PCP) and esophageal candidiasis.

[3] = tested on: rats; details: intravenous (IV); cited from earlier work
[4] = tested on: mice; details: intravenous (IV); cited from earlier work
[5] = tested on: dogs; details: IV dose levels up to 85 mg/kg/day for 2 weeks; cited from earlier work
[6] = tested on: rats; details: IV dose levels up to 150 mg/kg/day for one month; cited from earlier work
[7] = tested on: rats; details: oral, up to 500 mg/kg/day; cited from earlier work
[8] = tested on: Beagle dogs; details: cited from earlier work
[9] = tested on: Cynomolgus monkeys; details: cited from earlier work
[10] = tested on: Cynomolgus monkeys; details: cited from earlier work; remark: listed apart in the source
[11] = tested on: rats; details: cited from earlier work
[12] = tested on: pregnant rats; details: up to 500 mg/kg oral, gestation day 6 through 15; cited from earlier work
[13] = tested on: cultured human lymphocytes; details: in vitro; cited from earlier work
[14] = in vivo; cited from earlier work
[15] = tested on: patients with AIDS OR AIDS-related complex and HTLV-III/LAV viremia; details: cited from earlier work
[16] = tested on: patients (AIDS) recovered from Pneumocystis carinii pneumonia (PCP) and late AIDS-Related Complex (ARC); details: cited from earlier work
[17] = Treatment of severe psoriasis in an individual with AIDS-related complex
[18] = one female dog, sacrificed on day 14

**Q.** Which results are given for `Cc1cn([C@H]2C[C@H](N=[N+]=[N-])[C@@H](CO[C@@H]3O[C@H](C(=O)O)[C@@H](O)[C@H](O)[C@H]3O)O2)c(=O)[nH]c1=O` [GAZT, 5'-glucuronide of AZT]?
**A.** activity of the metabolite ([1]; in vivo): inactive; metabolite identification ([1]; plasma and urine): major plasma and urinary metabolite; clearance from plasma (metabolite) ([1]; plasma): rapidly cleared from plasma; plasma level relative to the corresponding AZT level ([1]; plasma): 2-3 ×

**Q.** Which “efficacy in relieving the progression of AIDS” value [2] does the source give for `Cc1cn([C@H]2C[C@H](N=[N+]=[N-])[C@@H](CO)O2)c(=O)[nH]c1=O` [azidothymidine, 3'-azido-3'-deoxythymidine] here?
**A.** no efficacy in relieving the progression of this individual's AIDS

**Q.** And the LD50 [3]?
**A.** greater than 70 mg/kg

**Q.** What about the LD50 [4] of the same compound?
**A.** greater than 70 mg/kg

**Q.** What about the alterations [5] of the same compound?
**A.** No significant alterations were seen

**Q.** And the changes [6]?
**A.** no changes were noted

**Q.** And the “histologic changes in liver and kidney” value [7]?
**A.** very minimal histologic changes in the liver and kidney of a few animals were observed

**Q.** And the leukopenia and thrombocytopenia ([8]; Beagle dogs, oral, all dose levels (125, 250, 500 mg/kg/day), 2 weeks)?
**A.** Moderate to marked leukopenia and thrombocytopenia was noted at all dose levels

**Q.** And the “vomiting and fecal alterations” value ([8]; Beagle dogs, oral, high doses, daily for 2 weeks)?
**A.** Vomiting and fecal alterations (with blood) were seen in dogs receiving high doses

**Q.** What about the “bone marrow and lymphoid tissue findings” value ([8]; Beagle dogs, oral, further studies) of the same compound?
**A.** hypocellularity of the bone marrow; hypoactive lymphoid tissues were also noted

**Q.** What about the gross gastrointestinal findings ([8]; high dose dogs and a mid-dose female, high dose female) of the same compound?
**A.** hemorrhage in the gastrointestinal tract in the high dose dogs and a mid-dose female, as well as a maturational defect with mucosal atrophy in the intestinal tract of the high dose female were observed

**Q.** What about the “alkaline phosphatase, BUN, and creatinine” value [8, 18] of the same compound?
**A.** alkaline phosphatase, BUN, and creatinine were elevated

**Q.** What about the weight loss [8, 18] of the same compound?
**A.** significant weight loss

**Q.** And the vomiting ([9]; Cynomolgus monkeys, high dose male, oral, 2 weeks)?
**A.** frequent vomiting in the high dose male

**Q.** What about the “RBC, HCT, Hgb” value ([9]; all treatment levels (125, 250, 500 mg/kg/day), oral 2 weeks, values still within normal limits) of the same compound?
**A.** a slight nondose-related decrease (values still within normal limits) in RBC, HCT, Hgb at all treatment levels

**Q.** And the SGPT ([9]; treated males and the high dose female, values still within normal limits)?
**A.** a slight increase in SGPT (Values still within normal limits) in treated males and the high dose female

**Q.** And the “recovery of hematology values” ([10]; 26-39 day post-dosing recovery period)?
**A.** These values returned to normal limits during the 26-39 day post-dosing recovery period

**Q.** And the “RBCs, hemoglobin, and hematocrit” value ([10]; 34, 100, or 300 mg/kg by gavage, day 21)?
**A.** dose-related decreases in RBCs, hemoglobin, and hematocrit at day 21

**Q.** What about the hemoglobin and hematocrit ([10]; remainder of treatment period after day 21) of the same compound?
**A.** hemoglobin and hematocrit remained stable

**Q.** And the RBCs ([10]; until the end of treatment)?
**A.** further reduced until the end of treatment

**Q.** What about the glucose ([11]; high dose female rats, day 89) of the same compound?
**A.** A mild increase in glucose was observed only in high dose female rats on day 89

**Q.** And the “clinical observation (staining of the anogenital area)” value ([11]; high dose male rats)?
**A.** occasional staining of the anogenital area in high dose male rats

**Q.** And the SGOT ([11]; high dose rats at various times)?
**A.** a mild decrease in SGOT in high dose rats at various times

**Q.** What about the “hematologic changes or gross pathologic changes” value ([11]; rats, 13 weeks oral) of the same compound?
**A.** no hematologic changes or gross pathologic changes

**Q.** And the treatment related deaths ([11]; rats, 56, 167 or 500 mg/kg/day by gavage, 13 weeks)?
**A.** no treatment related deaths

**Q.** And the maternal weight [12]?
**A.** a slight decrease in maternal weight was noted

**Q.** What about the clastogenicity [13] of the same compound?
**A.** clastogenic

**Q.** What about the Cmax ([1]; Group A, IV, 1.0 mg/kg Q 8 hr) of the same compound?
**A.** 0.44 ± 0.14 microgram/ml

**Q.** And the Cmax ([1]; Group A, oral, 2.0 mg/kg Q 8 hr)?
**A.** 0.53 ± 0.11 microgram/ml

**Q.** And the Cmax ([1]; Group B, IV, 2.5 mg/kg Q 8 hr)?
**A.** 1.17 ± 0.49 microgram/ml

**Q.** What about the Cmax ([1]; Group B, oral, 5.0 mg/kg Q 8 hr) of the same compound?
**A.** 1.37 ± 0.58 microgram/ml

**Q.** What about the Cmax ([1]; Group C, IV, 2.5 mg/kg Q 4 hr) of the same compound?
**A.** 1.06 ± 0.03 microgram/ml

**Q.** And the Cmax ([1]; Group C, oral, 5.0 mg/kg Q 4 hr)?
**A.** 1.57 ± 0.81 microgram/ml

**Q.** And the Cmax ([1]; Group D, IV, 5.0 mg/kg Q 4 hr)?
**A.** 2.28 ± 0.31 microgram/ml

**Q.** And the Cmax ([1]; Group D, oral, 10.0 mg/kg Q 4 hr)?
**A.** 3.14 ± 0.73 microgram/ml

**Q.** And the Cmax ([1]; Group E, IV, 7.5 mg/kg Q 4 hr)?
**A.** 4.71 ± 0.79 microgram/ml

**Q.** What about the Cmax ([1]; Group E, oral, 15.0 mg/kg Q 4 hr) of the same compound?
**A.** 10.40 ± 3.47 microgram/ml

**Q.** And the total body clearance ([1]; IV doses from 1.0 to 5.0 mg/kg)?
**A.** approximately 1900 ml/min/70 kg

**Q.** What about the “dose excreted unchanged in the urine as AZT” value ([1]; IV dosing) of the same compound?
**A.** about 25%

**Q.** And the “plasma decay after the end of infusion” value ([1]; IV)?
**A.** biexponential decay after the end of infusion indicating two-compartmental pharmacokinetics

**Q.** What about the mean half-life ([1]; all dose levels, IV and oral dosing) of the same compound?
**A.** approximately 1.0 hr

**Q.** What about the “dose proportionality of Cmax and AUC” value ([1]; between 5.0 and 7.5 mg/kg IV and 10.0 and 15 mg/kg oral) of the same compound?
**A.** a disproportional increase in peak concentrations (Cmax) and area under the plasma-concentration time curve (AUC)

**Q.** And the “drug or metabolite accumulation” value ([1]; chronic IV or oral dosing)?
**A.** No unexpected drug or metabolite accumulation was observed

**Q.** What about the “dose proportionality of concentrations” value ([1]; doses to 5.0 mg/kg IV and 10 mg/kg oral) of the same compound?
**A.** increased proportionally with doses to 5.0 and 10 mg/kg, for IV and oral administration respectively, indicating dose-independent kinetics up to these dosages

**Q.** What about the renal clearance ([1]; estimated) of the same compound?
**A.** about 500 ml/min

**Q.** And the bioavailability ([1]; oral, all dose levels)?
**A.** 60-70%

**Q.** What about the “cause of incomplete bioavailability” value ([1]; oral) of the same compound?
**A.** appears to be due to first-pass metabolism, rather than reduced absorption

**Q.** What about the side effects [14] of the same compound?
**A.** hematologic abnormalities such as anemia, neutropenia, bone marrow toxicity, headache, mild CNS symptoms, insomnia

**Q.** What about the “mild confusion or anxiety (number of patients)” value ([15]; 29 patients) of the same compound?
**A.** Three

**Q.** And the “transient elevations in transaminases (number of patients)” value ([15]; 29 patients)?
**A.** Five

**Q.** And the “transient erythematous rash (number of patients)” value ([15]; 29 patients)?
**A.** one

**Q.** And the decline in hemoglobin ([15]; by six weeks)?
**A.** all patients had some decline in hemoglobin by six weeks, the change was not proportional to the starting dose

**Q.** And the deaths ([15]; during the year since the trial was initiated)?
**A.** Four

**Q.** And the “anemia which warranted dose reduction or temporary interruption” value ([15]; human, in vivo, po)?
**A.** Twenty of 28 patients

**Q.** What about the “dose-limiting toxicity / response of neutropenia” value ([15]; human, in vivo) of the same compound?
**A.** appeared to be the dose-limiting toxicity. Neutropenia responded favorably to reduction in dose of AZT

**Q.** And the “effect on electrolytes or renal or cardiac function” value ([15]; human, in vivo)?
**A.** no effect on electrolytes or renal or cardiac function

**Q.** And the “headache (number of patients)” value ([15]; human, in vivo)?
**A.** 8 patients

**Q.** And the “neutropenia (number of patients)” value ([15]; human, in vivo)?
**A.** 13 patients

**Q.** And the “generalized pruritus (number of patients)” value ([15]; one episode, 29 patients)?
**A.** one

**Q.** What about the bone marrow biopsies ([15]; three patients) of the same compound?
**A.** megaloblastic changes

**Q.** What about the reversibility of anemia ([15]; when the drug is discontinued) of the same compound?
**A.** reversible in most patients when the drug is discontinued

**Q.** What about the “reduction in dosage or interruption of treatment” value ([16]; 250 mg every 4 hours (1.5 grams daily)) of the same compound?
**A.** Many patients on AZT required a reduction in dosage or interruption of treatment, primarily because of anemia

**Q.** And the “deaths (AZT group)” value ([16]; 250 mg every 4 hours, as of Sept. 18, 1986, 16 in patients receiving placebo)?
**A.** one

**Q.** What about the “patients requiring blood transfusions” value ([16]; human, in vivo) of the same compound?
**A.** approximately 25%

**Q.** And the “decreases in hemoglobin and neutrophils” value ([16]; second month of therapy, dose decreased or drug discontinued)?
**A.** decreases in hemoglobin and neutrophils occurred during the second month of therapy and appeared to be reversible if the dose was decreased or drug discontinued

**Q.** What about the “patients with greater than 25% reduction in hemoglobin” value ([16]; vs 13 of 137 patients receiving placebo, preliminary review) of the same compound?
**A.** 47 of 145

**Q.** And the psoriasis clearance ([17]; 800 mg orally per day)?
**A.** completely cleared

**Q.** What about the “time to complete clearing of psoriasis” value ([17]; 800 mg orally per day) of the same compound?
**A.** two to three

**Q.** What about the “time to significant improvement in lesion pruritus” value ([17]; 800 mg orally per day) of the same compound?
**A.** ≤ 24 h

**Q.** What about the lesion pruritus ([17]; 800 mg orally per day, within 24 hours) of the same compound?
**A.** a significant improvement in the lesion pruritus

**Q.** And the “pruritus after AZT was held for 7 days and restarted at half dose” value ([17]; AZT held 7 days, restarted at half dose)?
**A.** The pruritus returned temporarily

**Q.** And the anemia ([17]; after a month, restarted at half dose)?
**A.** The AZT was held for 7 days after a month for anemia

**Q.** And the “time until psoriasis began to clear” value ([17]; in vivo)?
**A.** 24 h

**Q.** And the improvement of psoriasis ([17]; over a period several weeks)?
**A.** significant improvement over a period several weeks

**Q.** And the “nail regrowth and psoriasis at three months” value ([17]; three months)?
**A.** nail regrowth was normal and the psoriasis was completely clear
